Converted amounts (≈) assume the structure as drawn. The source made the active and inactive calls. No cut-off for these calls is given here.
Legend:
[1] = test system: Escherichia coli; assay: Antibacterial activity against pET28a-NDM-1 positive Escherichia coli BL21(DE3) isolates assessed as tetracycline MIC incubated for 18 to 24 hrs by CLSI based broth microdilution method; assay type: functional; conditions: time 18-24 hrs
[2] = test system: Escherichia coli; assay: Antibacterial activity against pET28a-NDM-1 positive Escherichia coli BL21(DE3) isolates assessed as doxycycline MIC incubated for 18 to 24 hrs by CLSI based broth microdilution method; assay type: functional; conditions: time 18-24 hrs
[3] = test system: Escherichia coli; assay: Antibacterial activity against pET28a-NDM-1 positive Escherichia coli BL21(DE3) isolates assessed as vancomycin MIC incubated for 18 to 24 hrs by CLSI based broth microdilution method; assay type: functional; conditions: time 18-24 hrs
[4] = test system: Escherichia coli; assay: Synergistic antibacterial activity against NDM-1 positive Escherichia coli ZC-YN3 isolates assessed as fractional Inhibitory concentration index incubated for 18 to 24 hrs in presence of streptomycin by CLSI based broth microdilution method; assay type: functional; conditions: time 18-24 hrs
[5] = test system: Escherichia coli; assay: Antibacterial activity against NDM-1 positive Escherichia coli ZC-YN3 isolates assessed as spectinomycin MIC incubated for 18 to 24 hrs by CLSI based broth microdilution method; assay type: functional; conditions: time 18-24 hrs
[6] = test system: Bacteria; assay: Binding affinity to NDM-1 V73A mutant (unknown origin) assessed as binding free energy by fluorescence quenching method
[7] = Inhibition of metallo-beta-lactamase NDM-9 (unknown origin) using nitrocefin as substrate preincubated for 15 min followed by substrate addition and measured after 15 min by microplate reader assay; set-up: species or system Bacteria
[8] = test system: Escherichia coli; assay: Antibacterial activity against pET28a-NDM-1 positive Escherichia coli BL21(DE3) isolates assessed as ampicillin MIC incubated for 18 to 24 hrs by CLSI based broth microdilution method; assay type: functional; conditions: time 18-24 hrs
[9] = test system: Bacteria
Description: Binding affinity to NDM-1 V73A mutant (unknown origin) assessed as binding constant by fluorescence quenching method

[10] = test system: Escherichia coli; assay: Synergistic antibacterial activity against pET28a NDM-1 positive Escherichia coli BL21(DE3) isolates assessed as fractional Inhibitory concentration index incubated for 18 to 24 hrs in presence of imipenem by CLSI based broth microdilution method; assay type: functional; conditions: time 18-24 hrs
[11] = test system: Escherichia coli; assay: Synergistic antibacterial activity against NDM-1 positive Escherichia coli ZC-YN3 isolates assessed as fractional Inhibitory concentration index incubated for 18 to 24 hrs in presence of ciprofloxacin by CLSI based broth microdilution method; assay type: functional; conditions: time 18-24 hrs
[12] = test system: Mus musculus; assay: Antibacterial activity in BALB/c mouse infected with NDM-1 positive Escherichia coli ZJ487 assessed as increase in survival rate at 10 mg/kg, sc administered every 12 hrs and measured after 96 hrs post infection; assay type: functional
[13] = test system: Escherichia coli; assay: Synergistic antibacterial activity against pET28a NDM-1 positive Escherichia coli BL21(DE3) isolates assessed as fractional Inhibitory concentration index incubated for 18 to 24 hrs in presence of ampicillin by CLSI based broth microdilution method; assay type: functional; conditions: time 18-24 hrs
[14] = test system: Escherichia coli; assay: Antibacterial activity against pET28a-NDM-1 positive Escherichia coli BL21(DE3) isolates assessed as meropenem MIC incubated for 18 to 24 hrs by CLSI based broth microdilution method; assay type: functional; conditions: time 18-24 hrs
[15] = test system: Escherichia coli; assay: Synergistic antibacterial activity against NDM-1 positive Escherichia coli ZC-YN3 isolates assessed as fractional Inhibitory concentration index incubated for 18 to 24 hrs in presence of colistin by CLSI based broth microdilution method; assay type: functional; conditions: time 18-24 hrs
[16] = test system: Escherichia coli; assay: Synergistic antibacterial activity against pET28a NDM-1 positive Escherichia coli BL21(DE3) isolates assessed as fractional Inhibitory concentration index incubated for 18 to 24 hrs in presence of florfenicol by CLSI based broth microdilution method; assay type: functional; conditions: time 18-24 hrs
[17] = test system: Escherichia coli; assay: Synergistic antibacterial activity against pET28a NDM-1 positive Escherichia coli BL21(DE3) isolates assessed as fractional Inhibitory concentration index incubated for 18 to 24 hrs in presence of doxycycline by CLSI based broth microdilution method; assay type: functional; conditions: time 18-24 hrs
[18] = test system: Escherichia coli; assay: Synergistic antibacterial activity against NDM-1 positive Escherichia coli ZC-YN3 isolates assessed as fractional Inhibitory concentration index incubated for 18 to 24 hrs in presence of vancomycin by CLSI based broth microdilution method; assay type: functional; conditions: time 18-24 hrs
[19] = test system: Bacteria; assay: Binding affinity to NDM-1 H250A mutant (unknown origin) assessed as binding free energy by fluorescence quenching method
[20] = test system: Bacteria; assay: Inhibition of NDM-1 activity (unknown origin) in presence of zinc ion
[21] = test system: Escherichia coli; assay: Antibacterial activity against NDM-1 negative Escherichia coli BL21(DE3) (pET28a) isolates assessed as meropenem MIC incubated for 18 to 24 hrs by CLSI based broth microdilution method; assay type: functional; conditions: time 18-24 hrs
[22] = test system: Escherichia coli; assay: Antibacterial activity against NDM-1 positive Escherichia coli ZC-YN3 isolates assessed as florfenicol MIC incubated for 18 to 24 hrs by CLSI based broth microdilution method; assay type: functional; conditions: time 18-24 hrs
[23] = test system: Escherichia coli; assay: Synergistic antibacterial activity against NDM-1 positive Escherichia coli ZC-YN3 isolates assessed as fractional Inhibitory concentration index incubated for 18 to 24 hrs in presence of doxycycline by CLSI based broth microdilution method; assay type: functional; conditions: time 18-24 hrs
[24] = test system: Mus musculus; assay: Synergistic antibacterial activity in BALB/c mouse infected with NDM-1 positive Escherichia coli ZJ487 assessed as increase in survival rate at 50 mg/kg, sc administered every 12 hrs and measured after 96 hrs post infection in presence of meropenem; assay type: functional
[25] = test system: Escherichia coli; assay: Antibacterial activity against NDM-1 positive Escherichia coli ZC-YN3 isolates assessed as vancomycin MIC incubated for 18 to 24 hrs by CLSI based broth microdilution method; assay type: functional; conditions: time 18-24 hrs
[26] = test system: Escherichia coli; assay: Antibacterial activity against NDM-1 positive Escherichia coli ZC-YN3 isolates assessed as lincomycin MIC incubated for 18 to 24 hrs by CLSI based broth microdilution method; assay type: functional; conditions: time 18-24 hrs
[27] = test system: Escherichia coli; assay: Antibacterial activity against NDM-1 positive Escherichia coli ZC-YN3 isolates assessed as doxycycline MIC incubated for 18 to 24 hrs by CLSI based broth microdilution method; assay type: functional; conditions: time 18-24 hrs
[28] = test system: Escherichia coli; assay: Synergistic antibacterial activity against pET28a NDM-1 positive Escherichia coli BL21(DE3) isolates assessed as fractional Inhibitory concentration index incubated for 18 to 24 hrs in presence of colistin by CLSI based broth microdilution method; assay type: functional; conditions: time 18-24 hrs
[29] = test system: Bacteria; assay: Inhibition of NDM-1 V73A mutant activity (unknown origin) in presence of zinc ion
[30] = test system: Escherichia coli; assay: Antibacterial activity against NDM-1 positive Escherichia coli ZC-YN3 isolates assessed as ciprofloxacin MIC incubated for 18 to 24 hrs by CLSI based broth microdilution method; assay type: functional; conditions: time 18-24 hrs
[31] = test system: Escherichia coli; assay: Synergistic antibacterial activity against pET28a NDM-1 positive Escherichia coli BL21(DE3) isolates assessed as fractional Inhibitory concentration index incubated for 18 to 24 hrs in presence of vancomycin by CLSI based broth microdilution method; assay type: functional; conditions: time 18-24 hrs
[32] = test system: Escherichia coli; assay: Antibacterial activity against NDM-1 positive Escherichia coli ZC-YN3 isolates assessed as ampicillin MIC incubated for 18 to 24 hrs by CLSI based broth microdilution method; assay type: functional; conditions: time 18-24 hrs
[33] = test system: Bacteria; assay: Binding affinity to NDM-1 (unknown origin) assessed as binding free energy by fluorescence quenching method
[34] = test system: Bacteria; assay: Inhibition of NDM-1 M248A mutant activity (unknown origin) in presence of zinc ion
[35] = test system: Escherichia coli; assay: Synergistic antibacterial activity against NDM-1 positive Escherichia coli ZC-YN3 isolates assessed as fractional Inhibitory concentration index incubated for 18 to 24 hrs in presence of tetracycline by CLSI based broth microdilution method; assay type: functional; conditions: time 18-24 hrs

Molecule `O=c1c(O)c(-c2ccc(O)c(O)c2)oc2cc(O)ccc12` [FISETIN] has an MIC [1] of 427 µg/mL, an MIC [2] of 107 µg/mL and an MIC [3] of 683 µg/mL. For the same molecule, the “fractional inhibitory concentration index (FICI)” value [4] was 1.13, the MIC [5] was 853 µg/mL and the Activity [6] was -18.7 kcal/mol. For the same molecule, the IC50 [7] was 25.98 µg/mL (≈ 90.8 µM), the MIC [8] was 683 µg/mL and the Ka [9] was 11.1 10^5L/mol. The “fractional inhibitory concentration index (FICI)” value [10] was 0.46, the “fractional inhibitory concentration index (FICI)” value [11] was 1.13 and the Activity [12] was 20%. For the same molecule, the “fractional inhibitory concentration index (FICI)” value [13] was 0.96, the MIC [14] was 4.67 µg/mL and the “fractional inhibitory concentration index (FICI)” value [15] was 1.13. For the same molecule, the “fractional inhibitory concentration index (FICI)” value [16] was 0.79, the “fractional inhibitory concentration index (FICI)” value [17] was 0.96 and the “fractional inhibitory concentration index (FICI)” value [18] was 0.96. For the same molecule, the Activity [19] was -12.4 kcal/mol, the inhibition [20] was “Active” and the MIC [21] was 0.01 µg/mL. For the same molecule, the MIC [22] was 341 µg/mL, the “fractional inhibitory concentration index (FICI)” value [23] was 0.96 and the Activity [24] was 60%. For the same molecule, the MIC [25] was 427 µg/mL, the MIC [26] was 1020 µg/mL and the MIC [27] was 53.3 µg/mL. For the same molecule, the “fractional inhibitory concentration index (FICI)” value [28] was 1.13, the inhibition [29] was “Active” and the MIC [30] was 6.67 µg/mL. The “fractional inhibitory concentration index (FICI)” value [31] was 1.13, the MIC [32] was 853 µg/mL and the Activity [33] was -25 kcal/mol. For the same molecule, the inhibition [34] was “Active” and the “fractional inhibitory concentration index (FICI)” value [35] was 1.13.

— ChEMBL document CHEMBL5131475, “Metallo-β-lactamases inhibitor fisetin attenuates meropenem resistance in NDM-1-producing Escherichia coli” (Eur J Med Chem, 2022)
